{"source": "patent US20220002291A1", "about": "“PROTEOLYSIS-TARGETING CHIMERAS” (The Wistar Institute of Anatomy and Biology, priority 2018, published 2022)", "key": {"primary Ph+ ALL cells": {"tested_on": "primary Ph+ ALL cells", "assay": "Short (3 consecutive days) treatment of Ph+ ALL xenografts, analysis of bone marrow leukemic cells", "format": "in vivo, NSG mice", "conditions": "150 mg/kg/day, 3 consecutive days", "experimental": "Animals. Mice experiments were performed according the guidelines of Thomas Jefferson University Institutional Animal Care and Use Committee (IACUC, protocol number 00012). For leukemogenesis assays, 2×10^6 leukemia cells (shCDK6-transduced BV173 cells or primary cells from Ph+ ALL patients) were injected intravenously into 7- to 9-week-old NOD/SCID/IL-2Rγ^null or NRG-SGM3 mice (The Jackson Laboratory, stock #005557 and #024099, respectively). To induce CDK6 down-regulation in vivo, mice were continuously treated with doxycycline (2 g/L) in D(+)-sucrose-supplemented (30 g/L) drinking water starting 7 days post-cell injection.\nThe percentage of leukemia cells in the peripheral blood or bone marrow was assessed by detection of the human CD19 (by antibody #555415 from BD Bioscience) or CD10 antigen (by antibody #555375 from BD Bioscience) using the BD FACS Celesta flow cytometer.\nTo assess whether PROTAC YX-2-107 is pharmacologically active in vivo its effects were tested after a short treatment in Ph+ ALL xenografts. […] A similar pilot study was performed with PROTAC AC-1-212."}, "CDK6/cyclinD3": {"molecular_target": "CDK6/cyclinD3 (Homo sapiens, UniProt Q00534)", "sequence (Q00534 whole entry)": "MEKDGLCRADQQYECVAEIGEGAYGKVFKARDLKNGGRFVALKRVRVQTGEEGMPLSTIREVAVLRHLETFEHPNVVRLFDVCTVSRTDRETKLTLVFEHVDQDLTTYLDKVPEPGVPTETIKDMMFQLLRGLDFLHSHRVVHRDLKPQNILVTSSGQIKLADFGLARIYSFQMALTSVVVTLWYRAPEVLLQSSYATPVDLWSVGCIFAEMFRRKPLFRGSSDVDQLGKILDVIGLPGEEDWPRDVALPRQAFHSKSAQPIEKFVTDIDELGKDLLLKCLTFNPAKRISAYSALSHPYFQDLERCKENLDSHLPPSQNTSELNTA", "sequence (P30281 whole entry partner)": "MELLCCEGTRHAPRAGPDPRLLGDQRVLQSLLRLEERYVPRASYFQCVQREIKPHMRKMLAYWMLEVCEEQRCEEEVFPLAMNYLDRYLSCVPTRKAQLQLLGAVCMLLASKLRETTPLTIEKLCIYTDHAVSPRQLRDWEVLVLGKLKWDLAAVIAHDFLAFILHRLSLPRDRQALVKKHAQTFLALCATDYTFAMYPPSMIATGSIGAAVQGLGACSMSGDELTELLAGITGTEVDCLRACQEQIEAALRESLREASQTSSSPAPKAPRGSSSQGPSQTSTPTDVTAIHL", "assay": "Inhibition of CDK6 kinase activity (in vitro)", "conditions": "IC50, CDK6/cyclinD3 kinase activity"}}, "note": "Several values for one entry are separate records, joined by “and”; a condition that tells them apart may be missing. Equal values may be shown once. Entries after “also recorded” stand apart in the source; their conditions may differ.", "data": [{"smiles": "CC(=O)c1c(C)c2cnc(Nc3ccc(N4CCN(C(=O)CNCCCCNC(=O)COc5cccc6c5C(=O)N(C5CCC(=O)NC5=O)C6=O)CC4)cn3)nc2n(C2CCCC2)c1=O", "note": "(stereo not drawn) [YX-2-107]", "values": [{"measurement": "CDK4 and CDK6 levels in bone marrow leukemic cells", "setting": "primary Ph+ ALL cells", "result": "suppressed CDK4 and CDK6 levels; also recorded: reduced CDK6 and, to a lesser degree, CDK4 levels"}, {"measurement": "S phase cells, RB phosphorylation and FOXM1 expression in bone marrow leukemic cells", "setting": "primary Ph+ ALL cells", "result": "indistinguishable in suppressing S phase cells and abolishing RB phosphorylation and FOXM1 expression; also recorded: indistinguishable in terms of suppressing the percentage of S phase cells"}, {"measurement": "IC50", "setting": "CDK6/cyclinD3", "result": "4.4 nM and 4.44 nM"}]}]}
